Patent US20250243219A1, “MACROCYCLIC COMPOUNDS AND USES THEREOF” (Cypralis Limited, priority 2022, published 2025)
Read-outs that look alike come from different tables or passages of the source.

Key:
pancreatic acinar cells = assay: Protection of pancreatic acinar cells against TLCS toxicity (propidium iodide uptake, FIG. 1); format: cell-based; settings: propidium iodide uptake as measure of necrotic cells
Excerpt: FIG. 1 propidium iodide (PI) up-take as a measure of the number of dead pancreatic acinar cells (through necrosis) as a percentage against a number of treatments with Compound (2) and cyclosporin A and controls in an in-vitro model based on pancreatic acinar cells against the toxicity of the bile acid taurolithocholic acid-3-sulphate (TLCS);
WO 2021/115299 (Zuo) discloses compounds that protect against acute kidney injury caused by many different causes. The same compounds are disclosed in U.S. Pat. No. 6,583,265 (C-Chem AG) as cyclophilin inhibitors. There is no enzyme inhibiting, receptor binding or ion channel activity known for these compounds other than inhibition of cyclophilins. It can therefore be concluded that the compounds of the present invention, which are potent cyclophilin inhibitors but have no activity on other enzymes or receptors, have the same spectrum of properties.
FIG. 1 illustrates two sets of results.

EAE C57BL/6J mice = assay: Experimental autoimmune encephalomyelitis (EAE) mouse model of multiple sclerosis; format: in vivo; settings: 75 mg/kg orally BID for 14 days
Procedure: C57BL/6 mice are the most commonly used strain. For the induction of EAE, typically, the immunogenic epitope MOG35-55 of myelin oligodendrocyte glycoprotein is suspended in complete Freund's adjuvant (CFA) prior to immunization. Thereafter, pertussis toxin (PT) is applied on the day of immunization and a couple of days later to facilitate the induction of EAE. Animals are assessed by body weight change, EAE scoring and histopathological examination for both inflammation and demyelination.
Compound (2) was dissolved at a dose level of 75 mg/kg with a final concentration of 20 mg/ml (in 66.6% PEG/water), and administered orally BID (i.e. every 12 hours) to C57BL/6J mice at a dose volume of 3.75 ml/kg. Treatment was started concomitant with the first signs of disease (around days 10-12) and continued for 14 days. The animals were evaluated for general clinical signs, body weight change and neurological score. After termination of treatment the animals were sacrificed, brains and spinal cords were collected, fixed in formalin 4% and processed for staining with haematoxylin and eosin.

[1] = Blood-brain barrier penetration, intravenous dosing; format: in vivo, rodents (mice or rats); settings: 3 mg/kg intravenous
Procedure: Test compounds were administered to rodents (mice or rats) either orally, subcutaneously or intravenously. To determine blood or plasma concentrations blood samples were taken at different time points and analysed for the concentration of test compound by LC/MS. Brain concentrations were measured by sacrificing animals and LC/MS analysis of brain homogenate.
The results for Compounds (2), (19), (6) and (27) are summarised in Table 6 showing concentrations of the Compounds in blood plasma and the brain.

[2] = tested on: permeabilised HepG2 cells; assay: Calcium retention capacity (CRC) assay in permeabilised HepG2 cells (MPTP opening); format: cell-based, human; parameters: CRC [10 μM]: unit not given here; settings: compound at 10 μM
Method in brief: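 Digitonin-permeabilised HepG2 cells received trains of calcium pulses (typically 5 μM) monitored with Calcium Green-5N until buffering failed, marking permeability transition. Runs with and without compound; calcium retained at 10 μM compound expressed as ratio versus cyclosporin A positive control.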

cyclophilin D = cyclophilin D (Homo sapiens (Human), UniProt P30405); assay: Functional peptidyl prolyl isomerase (PPIase) spectrophotometric assay, cyclophilin D; format: biochemical; settings: second value of CypA/D cell; read-out: Ki CypD
Method in brief: (§1)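 Cuvette-based UV/Vis assay of PPIase-catalysed cis-to-trans isomerisation of a peptide substrate. First-order rate constants fitted to absorbance, background rate subtracted. Ki derived from rate constant versus inhibitor concentration, typically 6-point curves in duplicate.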

[3] = tested on: kainic acid treated NMRI mice; assay: Kainic acid model of epilepsy; format: in vivo, Male NMRI mice; settings: 150 mg/kg for 3 consecutive days, kainic acid 45 mg/kg s.c., n=21
Procedure: Male NMRI mice (n=21) were given 150 mg/kg of Compound (2) (60% PEG400/water solution) for 3 consecutive days. 2 hours after the last dose the animals were given subcutaneously 45 mg/kg of kainic acid. Behaviour was monitored for 3 hours. On day 7 after receiving kainic acid the animals were sacrificed and brain analysed by immunohistochemistry for markers of neurodegeneration.

cyclophilin A = cyclophilin A (Homo sapiens (Human), UniProt P62937); assay: Functional peptidyl prolyl isomerase (PPIase) spectrophotometric assay, cyclophilin A; format: biochemical; settings: first value of CypA/D cell
Method in brief: as §1

[4] = tested on: animal models of acute pancreatitis; settings: Mukherjee et al., Gut Online, 12 Jun. 2015; cited from earlier work
[5] = vs vehicle group, not statistically significant

Chain of cyclophilin A (P62937 whole entry, species assumed): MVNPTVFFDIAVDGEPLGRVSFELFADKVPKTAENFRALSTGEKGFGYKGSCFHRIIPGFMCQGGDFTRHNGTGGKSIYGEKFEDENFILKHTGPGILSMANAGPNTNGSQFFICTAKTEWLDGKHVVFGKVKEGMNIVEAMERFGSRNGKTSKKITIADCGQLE
Chain of cyclophilin D (P30405 30-207, species assumed): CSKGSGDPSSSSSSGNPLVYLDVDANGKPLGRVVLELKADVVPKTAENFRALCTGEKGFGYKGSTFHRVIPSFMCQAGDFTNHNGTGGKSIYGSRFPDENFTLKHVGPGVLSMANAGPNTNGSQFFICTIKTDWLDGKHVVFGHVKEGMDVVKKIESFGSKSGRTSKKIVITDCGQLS

CC(C)[C@@H]1OC(=O)C(C)(C)/C=C/c2ccc3ccc(nc3c2)N(C)NC(=O)[C@@H]2CCCN(N2)C(=O)[C@H](C)NC1=O [Compound (2)]
Protection of pancreatic acinar cells against toxicity of TLCS (pancreatic acinar cells): protect pancreatic acinar cells against the toxicity | Extent of spinal cord damage (EAE C57BL/6J mice; vs untreated control, FIG. 4): significant reduction | Body weight gain (EAE C57BL/6J mice; [5]): better body weight gain | Clinical score (EAE C57BL/6J mice; [5]): reduction in the clinical score | Blood-brain barrier passage [1]: passed the blood-brain barrier | concentration at 30 min ([1]; brain, read-out: Brain concentration): 170 ng/mL | concentration at 30 min ([1]; plasma, read-out: Plasma concentration): 222 ng/mL | CRC [10 μM] ([2]; digitonin permeabilised HepG2 cells): 26 | CRC [10 μM] (ratio vs CsA) ([2]; normalised to cyclosporin A, value in brackets): 0.9875 | Ki (cyclophilin D): 17 nM | Number of animals with visible signs of neurodegeneration ([3]; control group 5 animals): 2 animals | Percent of animals with visible signs of neurodegeneration ([3]; control group 24%): 9% | Ki (cyclophilin A): 5 nM | Protection in animal models of acute pancreatitis [4]: protective
